Four compounds from PubChem BioAssay AID1259407 (Chemical Carcinogenesis Research Information System (CCRIS), 2018) can be followed below.

The source made the active and inactive calls. The rule behind the calls is not given here.

The subject of the data set is CCRIS mutagenicity, Ames/micronucleus/aberration tests. In words: CCRIS mutagenicity studies.
The mark [1] stands for this setting: Test System: AMES SALMONELLA TYPHIMURIUM, Strain/Indicator: TA98, Metabolic Activation: NONE, Method: PREINCUBATION
Where [2] appears, read: Test System: AMES SALMONELLA TYPHIMURIUM, Strain/Indicator: TA98, Metabolic Activation: NONE, Method: STANDARD PLATE.
Where [3] appears, read: Test System: AMES SALMONELLA TYPHIMURIUM, Strain/Indicator: TA98, Metabolic Activation: RAT, LIVER, S-9, AROCLOR 1254, Method: PREINCUBATION
Setting [4] is: Test System: AMES SALMONELLA TYPHIMURIUM, Strain/Indicator: TA100, Metabolic Activation: NONE, Method: PREINCUBATION
[5] abbreviates: Test System: AMES SALMONELLA TYPHIMURIUM, Strain/Indicator: TA100, Metabolic Activation: NONE, Method: STANDARD PLATE.
Where [6] appears, read: Test System: AMES SALMONELLA TYPHIMURIUM, Strain/Indicator: TA100, Metabolic Activation: RAT, LIVER, S-9, AROCLOR 1254, Method: PREINCUBATION
[7] abbreviates: Test System: AMES SALMONELLA TYPHIMURIUM, Strain/Indicator: TA1535, Metabolic Activation: NONE, Method: PREINCUBATION
The mark [8] stands for this setting: Test System: AMES SALMONELLA TYPHIMURIUM, Strain/Indicator: TA1537, Metabolic Activation: NONE, Method: PREINCUBATION

Regarding `C[C@]12CCC(=O)C=C1[C@@H]1C[C@@H]1[C@H]1[C@@H]3[C@@H]4C[C@@H]4[C@@]4(CCC(=O)O4)[C@@]3(C)CC[C@@H]12`, the mutagenic call by setting is: (End Point: IN VITRO CHROMOSOMAL ABERRATIONS, Test System: HUMAN PERIPHERAL LYMPHOCYTES, Metabolic Activation: NONE) “inactive; negative”; (End Point: IN VITRO CHROMOSOMAL ABERRATIONS, Test System: HUMAN PERIPHERAL LYMPHOCYTES, Metabolic Activation: RAT, LIVER, S-9, AROCLOR 1254) “inactive; negative”; (End Point: IN VIVO MICRONUCLEUS, Test System: BONE MARROW POLYCHROMATIC ERYTHROCYTES, Species: MOUSE, Strain/Sex: NMRI/MALE, FEMALE, Route: INTRAGASTRIC) “inactive; negative”; under setting [1], “inactive; negative”; under setting [2], “inactive; negative”; under setting [3], “inactive; negative”. The mutagenic call is “inactive; negative” (Test System: AMES SALMONELLA TYPHIMURIUM, Strain/Indicator: TA98, Metabolic Activation: RAT, LIVER, S-9, AROCLOR 1254, Method: STANDARD PLATE); “inactive; negative” under setting [4]; “inactive; negative” under setting [5]; “inactive; negative” under setting [6]; “inactive; negative” (Test System: AMES SALMONELLA TYPHIMURIUM, Strain/Indicator: TA100, Metabolic Activation: RAT, LIVER, S-9, AROCLOR 1254, Method: STANDARD PLATE); “inactive; negative” under setting [7]. Moreover, the mutagenic call reads like this: (Test System: AMES SALMONELLA TYPHIMURIUM, Strain/Indicator: TA1535, Metabolic Activation: NONE, Method: STANDARD PLATE) “inactive; negative”; (Test System: AMES SALMONELLA TYPHIMURIUM, Strain/Indicator: TA1535, Metabolic Activation: RAT, LIVER, S-9, AROCLOR 1254, Method: PREINCUBATION) “inactive; negative”; (Test System: AMES SALMONELLA TYPHIMURIUM, Strain/Indicator: TA1535, Metabolic Activation: RAT, LIVER, S-9, AROCLOR 1254, Method: STANDARD PLATE) “inactive; negative”; under setting [8], “inactive; negative”; (Test System: AMES SALMONELLA TYPHIMURIUM, Strain/Indicator: TA1537, Metabolic Activation: NONE, Method: STANDARD PLATE) “inactive; negative”; (Test System: AMES SALMONELLA TYPHIMURIUM, Strain/Indicator: TA1537, Metabolic Activation: RAT, LIVER, S-9, AROCLOR 1254, Method: PREINCUBATION) “inactive; negative”. The mutagenic call runs as follows: (Test System: AMES SALMONELLA TYPHIMURIUM, Strain/Indicator: TA1537, Metabolic Activation: RAT, LIVER, S-9, AROCLOR 1254, Method: STANDARD PLATE) “inactive; negative”; (Test System: AMES SALMONELLA TYPHIMURIUM, Strain/Indicator: TA1538, Metabolic Activation: NONE, Method: PREINCUBATION) “inactive; negative”; (Test System: AMES SALMONELLA TYPHIMURIUM, Strain/Indicator: TA1538, Metabolic Activation: NONE, Method: STANDARD PLATE) “inactive; negative”; (Test System: AMES SALMONELLA TYPHIMURIUM, Strain/Indicator: TA1538, Metabolic Activation: RAT, LIVER, S-9, AROCLOR 1254, Method: PREINCUBATION) “inactive; negative”; (Test System: AMES SALMONELLA TYPHIMURIUM, Strain/Indicator: TA1538, Metabolic Activation: RAT, LIVER, S-9, AROCLOR 1254, Method: STANDARD PLATE) “inactive; negative”; (Test System: CHINESE HAMSTER V-79, Strain/Indicator: V-79 (HGPRT)/6-THIOGUANINE, Metabolic Activation: NONE) “inactive; negative”. For the same compound, the mutagenic call (Test System: CHINESE HAMSTER V-79, Strain/Indicator: V-79 (HGPRT)/6-THIOGUANINE, Metabolic Activation: RAT, LIVER, S-9, AROCLOR 1254) was “inactive; negative”.

In the case of `O=C([O-])c1cccnc1Nc1cccc(C(F)(F)F)c1.O=C([O-])c1cccnc1Nc1cccc(C(F)(F)F)c1.OCc1cccnc1.OCc1cccnc1.[Cu+2]`, the mutagenic call is, setting by setting: (Test System: AMES SALMONELLA TYPHIMURIUM, Strain/Indicator: TA97, Metabolic Activation: MOUSE, LIVER, S-9, Method: STANDARD PLATE) “inactive; negative”; (Test System: AMES SALMONELLA TYPHIMURIUM, Strain/Indicator: TA97, Metabolic Activation: NONE, Method: STANDARD PLATE) “inactive; negative”; (Test System: AMES SALMONELLA TYPHIMURIUM, Strain/Indicator: TA97, Metabolic Activation: RAT LIVER S-9, DELOR 103, Method: STANDARD PLATE) “inactive; negative”; (Test System: AMES SALMONELLA TYPHIMURIUM, Strain/Indicator: TA98, Metabolic Activation: MOUSE, LIVER, S-9, Method: STANDARD PLATE) “inactive; negative”; under setting [2], “inactive; negative”; (Test System: AMES SALMONELLA TYPHIMURIUM, Strain/Indicator: TA98, Metabolic Activation: RAT LIVER S-9, DELOR 103, Method: STANDARD PLATE) “inactive; negative”. The mutagenic call was “inactive; negative” (Test System: AMES SALMONELLA TYPHIMURIUM, Strain/Indicator: TA100, Metabolic Activation: MOUSE, LIVER, S-9, Method: STANDARD PLATE); “inactive; negative” under setting [5]; “inactive; negative” (Test System: AMES SALMONELLA TYPHIMURIUM, Strain/Indicator: TA100, Metabolic Activation: RAT LIVER S-9, DELOR 103, Method: STANDARD PLATE); “inactive; negative” (Test System: AMES SALMONELLA TYPHIMURIUM, Strain/Indicator: TA102, Metabolic Activation: MOUSE, LIVER, S-9, Method: STANDARD PLATE); “inactive; negative” (Test System: AMES SALMONELLA TYPHIMURIUM, Strain/Indicator: TA102, Metabolic Activation: NONE, Method: STANDARD PLATE); “inactive; negative” (Test System: AMES SALMONELLA TYPHIMURIUM, Strain/Indicator: TA102, Metabolic Activation: RAT LIVER S-9, DELOR 103, Method: STANDARD PLATE).

Turning to `O=Nc1cc2c3ccccc3ccc2c2ccccc12`, the mutagenic call was “active; positive” under setting [1]; “active; positive” under setting [3]; “active; positive” under setting [4]; “active; positive” under setting [6]; “active; positive” (Test System: CHINESE HAMSTER OVARY, Strain/Indicator: CHO-K1-BH4 (HGPRT)/6-THIOGUANINE, Metabolic Activation: NONE, Method: STANDARD PLATE); “active; positive” (Test System: CHINESE HAMSTER OVARY, Strain/Indicator: CHO-UV5 (HGPRT)/6-THIOGUANINE, Metabolic Activation: NONE, Method: STANDARD PLATE).

In the case of `O=C1[O][Bi][O]c2ccccc21`, the mutagenic call reads like this: (Test System: AMES SALMONELLA TYPHIMURIUM, Strain/Indicator: TA98, Metabolic Activation: HAMSTER, LIVER, S-9, AROCLOR 1254 (10%), Method: PREINCUBATION) “inactive; negative”; under setting [1], “inactive; negative”; (Test System: AMES SALMONELLA TYPHIMURIUM, Strain/Indicator: TA98, Metabolic Activation: RAT, LIVER, S-9, AROCLOR 1254 (10%), Method: PREINCUBATION) “inactive; negative”; (Test System: AMES SALMONELLA TYPHIMURIUM, Strain/Indicator: TA100, Metabolic Activation: HAMSTER, LIVER, S-9, AROCLOR 1254 (10%), Method: PREINCUBATION) “inactive; negative”; under setting [4], “inactive; negative”; (Test System: AMES SALMONELLA TYPHIMURIUM, Strain/Indicator: TA100, Metabolic Activation: RAT, LIVER, S-9, AROCLOR 1254 (10%), Method: PREINCUBATION) “inactive; negative”. Also, the mutagenic call is, setting by setting: (Test System: AMES SALMONELLA TYPHIMURIUM, Strain/Indicator: TA1535, Metabolic Activation: HAMSTER, LIVER, S-9, AROCLOR 1254 (10%), Method: PREINCUBATION) “inactive; negative”; under setting [7], “inactive; negative”; (Test System: AMES SALMONELLA TYPHIMURIUM, Strain/Indicator: TA1535, Metabolic Activation: RAT, LIVER, S-9, AROCLOR 1254 (10%), Method: PREINCUBATION) “inactive; negative”; (Test System: AMES SALMONELLA TYPHIMURIUM, Strain/Indicator: TA1537, Metabolic Activation: HAMSTER, LIVER, S-9, AROCLOR 1254 (10%), Method: PREINCUBATION) “inactive; negative”; under setting [8], “inactive; negative”; (Test System: AMES SALMONELLA TYPHIMURIUM, Strain/Indicator: TA1537, Metabolic Activation: RAT, LIVER, S-9, AROCLOR 1254 (10%), Method: PREINCUBATION) “inactive; negative”.
